From patent US10287297B2, “Epoxyazulene derivatives useful for treating cancer and diabetes” (The United States of America, as represented by the …, priority 2015, dated 2019)

Assays:
Type in all cases: cell-based
[1] = test system: SF-268; assay: NCI 60 cell assay, CNS SF-268; conditions: Homo sapiens, 48 h; SF-268 (CNS); drug exposure two days, SRB endpoint; read-out: GI-50 value
Protocol: (§1) Samples were tested in the standard National Cancer Institute 60-cell line protocol. First, they were tested against all 60 cell lines in a single final concentration of 10 micromolar. Then, they were separately tested in five 10-fold dilutions. The drug exposure was two days, with an SRB endpoint.

[2] = test system: COLO 205; assay: NCI 60 cell assay, colon COLO 205; conditions: Homo sapiens, 48 h; COLO 205 (colon); drug exposure two days, SRB endpoint; read-out: GI-50 value
Protocol: as §1

[3] = test system: NCI-H226; assay: NCI 60 cell assay, NSCLC NCI-H226; conditions: Homo sapiens, 48 h, drug exposure two days, SRB endpoint, read-out: GI-50 value
Protocol: as §1

[4] = test system: MDA-MB-231/ATCC; assay: NCI 60 cell assay, breast MDA-MB-231/ATCC; conditions: Homo sapiens, 48 h; MDA-MB-231/ATCC (breast); drug exposure two days, SRB endpoint; read-out: GI-50 value
Protocol: as §1

[5] = test system: SNB-75; assay: NCI 60 cell assay, CNS SNB-75; conditions: Homo sapiens, 48 h; SNB-75 (CNS); drug exposure two days, SRB endpoint; read-out: GI-50 value
Protocol: as §1

[6] = test system: MOLT-4; assay: NCI 60 cell assay, leukemia MOLT-4; conditions: Homo sapiens, 48 h; MOLT-4 (leukemia); drug exposure two days, SRB endpoint; read-out: GI-50 value
Protocol: as §1

[7] = test system: HCT-116; assay: NCI 60 cell assay, colon HCT-116; conditions: Homo sapiens, 48 h; HCT-116 (colon); drug exposure two days, SRB endpoint; read-out: GI-50 value
Protocol: as §1

[8] = test system: ACHN; assay: NCI 60 cell assay, renal ACHN; conditions: Homo sapiens, 48 h, drug exposure two days, SRB endpoint, read-out: GI-50 value
Protocol: as §1

[9] = test system: T-47D; assay: NCI 60 cell assay, breast T-47D; conditions: Homo sapiens, T47D, 48 h; T-47D (breast); drug exposure two days, SRB endpoint; read-out: GI-50 value
Protocol: as §1

[10] = test system: NCI-H460; assay: NCI 60 cell assay, NSCLC NCI-H460; conditions: Homo sapiens, 48 h, drug exposure two days, SRB endpoint, read-out: GI-50 value
Protocol: as §1

[11] = test system: EKVX; assay: NCI 60 cell assay, NSCLC EKVX; conditions: Homo sapiens, 48 h, drug exposure two days, SRB endpoint, read-out: GI-50 value
Protocol: as §1

[12] = test system: M14; assay: NCI 60 cell assay, melanoma M14; conditions: Homo sapiens, 48 h, drug exposure two days, SRB endpoint, read-out: GI-50 value
Protocol: as §1

[13] = test system: SK-MEL-28; assay: NCI 60 cell assay, melanoma SK-MEL-28; conditions: Homo sapiens, 48 h; SK-MEL-28 (melanoma); drug exposure two days, SRB endpoint; read-out: GI-50 value
Protocol: as §1

[14] = test system: OVCAR-3; assay: NCI 60 cell assay, ovarian OVCAR-3; conditions: Homo sapiens, 48 h; OVCAR-3 (ovarian); drug exposure two days, SRB endpoint; read-out: GI-50 value
Protocol: as §1

[15] = test system: RPMI-8226; assay: NCI 60 cell assay, leukemia RPMI-8226; conditions: Homo sapiens, 48 h; RPMI-8226 (leukemia); drug exposure two days, SRB endpoint; read-out: GI-50 value
Protocol: as §1

[16] = test system: MDA-MB-435; assay: NCI 60 cell assay, melanoma MDA-MB-435; conditions: Homo sapiens, 48 h; MDA-MB-435 (melanoma); drug exposure two days, SRB endpoint; read-out: GI-50 value
Protocol: as §1

[17] = test system: SR; assay: NCI 60 cell assay, leukemia SR; conditions: Homo sapiens, 48 h, drug exposure two days, SRB endpoint, read-out: GI-50 value
Protocol: as §1

[18] = test system: SNB-19; assay: NCI 60 cell assay, CNS SNB-19; conditions: Homo sapiens, 48 h; SNB-19 (CNS); drug exposure two days, SRB endpoint; read-out: GI-50 value
Protocol: as §1

[19] = test system: MCF7; assay: NCI 60 cell assay, breast MCF7; conditions: Homo sapiens, 48 h, drug exposure two days, SRB endpoint, read-out: GI-50 value
Protocol: as §1

[20] = test system: CAKI-1; assay: NCI 60 cell assay, renal CAKI-1; conditions: Homo sapiens, 48 h; CAKI-1 (renal); drug exposure two days, SRB endpoint; read-out: GI-50 value
Protocol: as §1

[21] = test system: LOX IMVI; assay: NCI 60 cell assay, melanoma LOX IMVI; conditions: Homo sapiens, 48 h, drug exposure two days, SRB endpoint, read-out: GI-50 value
Protocol: as §1

[22] = test system: SF-539; assay: NCI 60 cell assay, CNS SF-539; conditions: Homo sapiens, 48 h; SF-539 (CNS); drug exposure two days, SRB endpoint; read-out: GI-50 value
Protocol: as §1

[23] = test system: UACC-62; assay: NCI 60 cell assay, melanoma UACC-62; conditions: Homo sapiens, 48 h; UACC-62 (melanoma); drug exposure two days, SRB endpoint; read-out: GI-50 value
Protocol: as §1

[24] = test system: PC-3; assay: NCI 60 cell assay, prostate PC-3; conditions: Homo sapiens, 48 h; PC-3 (prostate); drug exposure two days, SRB endpoint; read-out: GI-50 value
Protocol: as §1

[25] = test system: K-562; assay: NCI 60 cell assay, leukemia K-562; conditions: Homo sapiens, K562, 48 h; K-562 (leukemia); drug exposure two days, SRB endpoint; read-out: GI-50 value
Protocol: as §1

[26] = test system: KM12; assay: NCI 60 cell assay, colon KM12; conditions: Homo sapiens, 48 h, drug exposure two days, SRB endpoint, read-out: GI-50 value
Protocol: as §1

[27] = test system: NCI-H23; assay: NCI 60 cell assay, NSCLC NCI-H23; conditions: Homo sapiens, 48 h, drug exposure two days, SRB endpoint, read-out: GI-50 value
Protocol: as §1

[28] = test system: MDA-MB-468; assay: NCI 60 cell assay, breast MDA-MB-468; conditions: Homo sapiens, 48 h; MDA-MB-468 (breast); drug exposure two days, SRB endpoint; read-out: GI-50 value
Protocol: as §1

[29] = test system: BT-549; assay: NCI 60 cell assay, breast BT-549; conditions: Homo sapiens, 48 h; BT-549 (breast); drug exposure two days, SRB endpoint; read-out: GI-50 value
Protocol: as §1

[30] = test system: HOP-62; assay: NCI 60 cell assay, NSCLC HOP-62; conditions: Homo sapiens, 48 h; HOP-62 (NSCLC); drug exposure two days, SRB endpoint; read-out: GI-50 value
Protocol: as §1

[31] = test system: SK-MEL-2; assay: NCI 60 cell assay, melanoma SK-MEL-2; conditions: Homo sapiens, 48 h; SK-MEL-2 (melanoma); drug exposure two days, SRB endpoint; read-out: GI-50 value
Protocol: as §1

[32] = test system: DU-145; assay: NCI 60 cell assay, prostate DU-145; conditions: Homo sapiens, 48 h; DU-145 (prostate); drug exposure two days, SRB endpoint; read-out: GI-50 value
Protocol: as §1

[33] = test system: MALME-3M; assay: NCI 60 cell assay, melanoma MALME-3M; conditions: Homo sapiens, 48 h; MALME-3M (melanoma); drug exposure two days, SRB endpoint; read-out: GI-50 value
Protocol: as §1

| SMILES | GI50 [1] [µM] | GI50 [2] [µM] | GI50 [3] [µM] | GI50 [4] [µM] | GI50 [5] [µM] | GI50 [6] [µM] | GI50 [7] [µM] | GI50 [8] [µM] | GI50 [9] [µM] | GI50 [10] [µM] | GI50 [12] [µM] | GI50 [13] [µM] | GI50 [14] [µM] | GI50 [15] [µM] | GI50 [16] [µM] | GI50 [17] [µM] | GI50 [18] [µM] | GI50 [19] [µM] | GI50 [20] [µM] | GI50 [21] [µM] | also measured |
| --- | --- | --- | --- | --- | --- | --- | --- | --- | --- | --- | --- | --- | --- | --- | --- | --- | --- | --- | --- | --- | --- |
| CC1=C2[C@@H](CC1)[C@]1(C)O[C@@](C(C)C)(C[C@H]1OC(=O)[C@H](C)O)[C@H]2OC(=O)C=Cc1ccccc1 [(Il), (3aR,4S,5R,7R,8S)-5-(((S)-2-hydroxypropanoyl)oxy)-7-isopropyl-1,4-dimethyl-2,3,3a,4,5,6,7,8-octahydro-4,7-epoxyazulen-8-yl cinnamate] | 1.3 | 17 | 11 | 15 | 24 | 10 | 12 | 0.09 | 7.2 | 15 | 13 | 16 | 13 | 8 | 15 | 13 | 18 | 10 | 7.2 | 15 | GI50 [11]: 10 µM; GI50 [22]: 15 µM; GI50 [23]: 13 µM; GI50 [24]: 4 µM; GI50 [25]: 15 µM; GI50 [26]: 16 µM; GI50 [27]: 14 µM; GI50 [28]: 11 µM; GI50 [29]: 1.4 µM; GI50 [30]: 15 µM; GI50 [31]: 15 µM; GI50 [32]: 17 µM; GI50 [33]: 15 µM |
| CC(=O)O[C@@H]1C[C@]2(C(C)C)O[C@@]1(C)[C@@H]1CCC(C)=C1[C@@H]2OC(=O)C=Cc1ccccc1 [(Im), (3aR,4S,5R,7R,8S)-5-acetoxy-7-isopropyl-1,4-dimethyl-2,3,3a,4,5,6,7,8-octahydro-4,7-epoxyazulen-8-yl cinnamate] | 35 | 32 | 29 | 49 | 28 | 27 | 16 | 4.5 | 20 | 31 | 40 | 69 | 22 | 10 | 39 | 32 | 85 | 19 | 13 | 30 | GI50 [11]: 20 µM; GI50 [22]: 100 µM; GI50 [23]: 26 µM; GI50 [24]: 8 µM; GI50 [25]: 34 µM; GI50 [26]: 40 µM; GI50 [27]: 35 µM; GI50 [28]: 24 µM; GI50 [29]: 51 µM; GI50 [30]: 89 µM; GI50 [31]: 100 µM; GI50 [32]: 71 µM; GI50 [33]: 39 µM |
| CC1=C2[C@@H](CC1)[C@]1(C)O[C@@](C3CCCCC3)(C[C@H]1OC(=O)CO)[C@H]2OC(=O)C=Cc1ccccc1 [(Iq), (3aR,4S,5R,7R,8S)-7-cyclohexyl-5-(2-hydroxyacetoxy)-1,4-dimethyl-2,3,3a,4,5,6,7,8-octahydro-4,7-epoxyazulen-8-yl cinnamate] | 0.7 | 15 | 12 | 18 | 14 | 12 | 9 | 0.035 | 9.1 | 13 | 15 | 17 | 13 | 10 | 15 | 9 | 17 | 4.5 | 10 | 14 | GI50 [11]: 11 µM; GI50 [22]: 17 µM; GI50 [23]: 15 µM; GI50 [24]: 12 µM; GI50 [25]: 13 µM; GI50 [26]: 14 µM; GI50 [27]: 14 µM; GI50 [28]: 12 µM; GI50 [29]: 0.5 µM; GI50 [30]: 14 µM; GI50 [31]: 17 µM; GI50 [32]: 13 µM; GI50 [33]: 17 µM |
| CC1=C2[C@@H](CC1)[C@]1(C)O[C@@](c3ccccc3)(C[C@H]1OC(=O)CO)[C@H]2OC(=O)C=Cc1ccccc1 [(Ir), (3aR,4S,5R,7R,8S)-5-(2-hydroxyacetoxy)-1,4-dimethyl-7-phenyl-2,3,3a,4,5,6,7,8-octahydro-4,7-epoxyazulen-8-yl cinnamate] | 1.4 | 15 | 16 | 19 | 15 | 12 | 15 | 0.035 | 11 | 15 | 17 | 18 | 15 | 13 | 17 | 11 | 22 | 10 | 13 | 17 | GI50 [11]: 15 µM; GI50 [22]: 18 µM; GI50 [23]: 15 µM; GI50 [24]: 10 µM; GI50 [25]: 16 µM; GI50 [26]: 16 µM; GI50 [27]: 17 µM; GI50 [28]: 15 µM; GI50 [29]: 0.71 µM; GI50 [30]: 18 µM; GI50 [31]: 16 µM; GI50 [32]: 17 µM; GI50 [33]: 20 µM |
| CC1=C2[C@@H](CC1)[C@]1(C)O[C@@](C(C)C)(C[C@H]1OC(=O)CO)[C@H]2OC(=O)/C=C/c1ccccc1 [Compound (Ih)] | 2.6 | 44 | 35 | 39 | 2.9 | 40 | 33 | 0.022 | 27 | 37 | 43 | 42 | 39 | 27 | 43 | 32 | 39 | 32 | 1.07 | 42 | GI50 [22]: 40 µM; GI50 [23]: 100 µM; GI50 [24]: 26 µM; GI50 [25]: 38 µM; GI50 [26]: 40 µM; GI50 [27]: 42 µM; GI50 [28]: 33 µM; GI50 [29]: 0.14 µM; GI50 [30]: 36 µM; GI50 [31]: 44 µM; GI50 [32]: 41 µM; GI50 [33]: 43 µM |
